Measured values reported in patent US20250134895A1, “METHODS AND COMPOSITIONS FOR TREATING ALPHA-SYNUCLEIN-MEDIATED NEURODEGENERATION” (UNIVERSITY HEALTH NETWORK, priority 2021, published 2025).

How the values were obtained:
α-synuclein oligomers [1] = target: T1, α-synuclein oligomers (Homo sapiens, UniProt P37840); assay: Venus YFP protein-fragment complementation assay in rat primary cortical neurons; format: cell-based; settings: 10 μM, 72 hours
Method: Specifically, adeno-associated viral vectors (AAV) were used to co-express human α-synuclein tagged with the N- or C-terminal half of Venus yellow fluorescent protein (YFP) in rat cortical neurons.
Pregnant Sprague Dawley rats (E17) were purchased from Charles River. Embryos were surgically removed, and neurons were harvested in a sterile environment. Neurons were plated on poly-D-lysine coated glass coverslips at a density of 5×10^5 cells per well in Neurobasal-A medium, (Gibco, 10888022) supplemented with B27 (2%) (Gibco, 17504044), antibiotic-antimycotic (1%) (Gibco, 15240062), and Glutamax (1%) (Gibco, 35050061). Fifty percent media changes were performed every 3 days. […] Two days post isolation, neurons were co-transduced with AAV-V1 S and AAV-SV2 or transduced with AAV-Venus alone at a MOI of 3,000. […] Concentrations were selected to avoid neuron toxicity according to previous reports.^57-61 Drug-containing media was removed, and cells were washed 1 time with ice-cold PBS before being fixed with 4% PFA (Sigma) at room temperature for 10 minutes. Levels of α-synuclein oligomers were measured by YFP fluorescence. […] YFP fluorescence intensity was analysed automatically using Imaris imaging software (Oxford Instruments). […]

control GFP C. elegans = assay: Coiler score and locomotion of control GFP C. elegans; format: in vivo, Caenorhabditis elegans
Method: Animals were synchronized by isolating eggs using alkaline hypochlorite treatment and hatching overnight. Larvae were plated onto NGM agar plates with OP50 and grown for 4 days before recording locomotion. For individual C. elegans recordings, a single adult animal was randomly picked, washed for 1 to 2 minutes in M9 buffer, and then transferred to a fresh NGM plate without food for imaging. Video images were acquired (2 frames per second) for up to 6 minutes using a sCMOS camera (pco.edge, PCO) mounted on a stereomicroscope (Olympus MVX10 MacroView) controlled using the μManager software.^55 A total of 40 individual animals were imaged for each strain. For C. elegans population recordings, ten adult animals were randomly removed using an eyelash pick, washed for 1 minute in M9 buffer, and then transferred to a fresh NGM plate without food, with a ring of copper sulfate solution (150 mM) around the area of recording (a chemorepellent to keep the animals in the recording frame). Exploratory locomotion was recorded using a CCD camera (GX1920, Allied Vision) which was attached to a dissecting stereomicroscope (Leica M165C, 1.0× PlanApo lens). […] Using ImageJ, the displacement, perimeter, and area of each animal was calculated, from which a circularity value was computed using the following formula: circularity=4π(A/P^2), where A is the area of the animal's body and P is the perimeter of the animal's body (both expressed in arbitrary pixel units). […] Using MATLAB (Mathworks), various behavioural metrics including the coiler score were calculated, which is the percentage of frames with a circularity value >0.6. Speed was automatically computed from the ImageJ based WrmTrk plugin as the distance travelled by each animal (in pixels) over the amount of time that it was tracked (in seconds).56 Average speed was determined by calculating the weighted average of each tracked animal's speed within a single population of animals. […]
C. elegans were grown and maintained as previously described (Examples 1-6). […] After 72 hours of drug treatment, animals were randomly picked, washed, and recorded. […]

α-synuclein oligomers [2] = target: T1, α-synuclein oligomers; assay: Gaussia luciferase protein-fragment complementation cell assay of α-synuclein oligomers in H4 neuroglioma cells; format: cell-based; design: full-length human α-synuclein fused to the N-terminal fragment of Gaussia princeps luciferase (syn-luc1); full-length human α-synuclein fused to the C-terminal fragment of Gaussia princeps luciferase (syn-luc2); expressed in transfected cells; host or cells: H4 neuroglioma cells (ATCC, HTB-148), transient co-transfection; settings: 1 μM or 10 μM, Example 9
Method: For controls in this assay, vehicle (i.e., DMSO), rapamycin, and bafilomycin A were used. Rapamycin, or sirolimus, is a small molecule that activates autophagy by inhibiting mTOR (mammalian target of rapamycin). […] To test this possibility, cells expressing α-synuclein were treated with each of the compounds and a cell permeable, resazurin-based assay was used to test for cell viability.
H4 neuroglioma cells (ATCC, HTB-148) were maintained in Dulbecco's Modified Eagle Medium plus high glucose, L-glutamine, and sodium pyruvate (ThermoFisher, 11995-065) with 10% heat-inactivated fetal bovine serum (ThermoFisher, 16140071) and 1% antibiotic-antimycotic cocktail (ThermoFisher, 15240062) at 37° C. and 5% CO2. DNA expression constructs encoding for full-length human α-synuclein fused to the N-terminal fragment of Gaussia princeps luciferase (syn-luc1), full-length human α-synuclein fused to the C-terminal fragment of Gaussia princeps luciferase (syn-luc2), and full-length Gaussia princeps luciferase were kindly provided by Dr. Pamela McLean, Mayo Clinic Jacksonville.^33 Cells were transiently co-transfected with syn-luc1 and syn-luc2 or transfected with luciferase alone using Superfect transfection reagent (Qiagen, 301305) according to the manufacturer's instructions. Twenty-four hours after transfection, cells were plated on a 96-well microplate at 60,000 cells per well. Twenty-four hours after plating, cells were treated with drugs or vehicle control. Following 24 hours of treatment, cells were washed 1 time with PBS and bioluminescence was measured using an automated CLARIOstar plate reader (Mandel, 430-0505). Cell permeable, native coelenterazine was used as the Gaussia luciferase substrate. Lyophilized coelenterazine (Nanolight, 303-500) was reconstituted in NanoFuel Solvent (Nanolight, 399-1), then diluted in PBS to 16.6 μg/mL, and dispensed per well to a final concentration of 20 μM). The bioluminescent signal generated by the luciferase enzyme was assessed at 470 nm over 5 seconds. Raw luminescence units were normalized to the DMSO vehicle control of each 96-well microplate. To assess cell viability, H4 neuroglioma cells were prepared and treated as described above and, 1 hour prior to viability analysis, cells were treated with PrestoBlue viability reagent (ThermoFisher, A13261) according to the manufacturer's instructions. Fluorescence was automatically measured using a CLARIOstar plate reader (Mandel, 430-0505) and then normalized to the fluorescence measure of the DMSO vehicle control.
We used a bioluminescent protein-fragment complementation assay in which human H4 neuroglioma cells co-express human α-synuclein tagged with the N- or C-terminal half of Gaussia princeps luciferase (FIG. 12). Reconstitution of a complete and active luciferase molecule from the fragments occurs upon α-synuclein oligomerization, and so luminescence provides an indirect measure of α-synuclein oligomer levels. H4 neuroglioma cells were co-transfected with α-syn luciferase fragments, and constructs were plated into a 96-well plate and treated with either 1 μM or 10 μM of each of the 19 drug compounds.

How did the “YFP fluorescence compared with vehicle control” value (α-synuclein oligomers [1]) turn out when `Nc1nc(NC2CC2)c2ncn([C@H]3C=C[C@@H](CO)C3)c2n1` [Abacavir, abacavir] was run?
Its value is “significantly reduced”.

What about the “speed of GFP worms” value (control GFP C. elegans; 100 μM) of the same compound?
Its value is “no differences”.

What about the “coiling / coiler score of control GFP animals” value (control GFP C. elegans; 100 μM of drug) of the same compound?
The value was “no differences”.

What about the “α-syn oligomers as measured by luciferase activity” value (α-synuclein oligomers [2]) of the same compound?
The value was “significant decrease”.
